Assay results as given in patent publication US10583137B2, “Triazole DAGLα inhibitors” (THE SCRIPPS RESEARCH INSTITUTE, priority 2015, dated 2020).
Like-named read-outs stand apart in the source and are kept apart here.

Tests used:
DAGLα (hDAGLα-FLAG) = DAGLα (hDAGLα-FLAG) (Homo sapiens (Human), UniProt Q9Y4D2); test: competitive ABPP, membrane proteome of transfected HEK293T cells; assay type: biochemical; conditions: for inhibition at 0.0032 µM: 3.2 nM, read-out: DAGLα % inh. 3.2 nM
Experimental: (§1) Compounds 19 and 20 were tested for in vitro inhibition of DAGLα and DAGLβ as measured by competitive activity-based protein profiling (ABPP) of […] using a HT-01 probe (targets DAGLα and DAGLβ) and a FP-Rh probe (targets serine hydrolases).
(§2) Briefly, membrane proteome (1 mg/ml, 20 μL) was prepared from HEK293T cells (transiently transfected with hDAGLα-FLAG or hDAGLα-S472A-FLAG, hDAGLβ-FLAG or hDAGLβ-S443A-FLAG) as described in Example 16. The proteome was incubated at room temperature with vehicle (DMSO) or compound in 0.5 μL DMSO for 30 min. The membrane proteome sample was subsequently treated for 30 min with HT-01 probe (1 μM) or FP-Rh probe (1 μM). The reactions were quenched with 10 μL 3× Laemmli sample buffer (final concentrations: 60 mM Tris-Cl pH 6.8, 2% (w/v) SDS, 10% (v/v) glycerol, 5% (v/v) (3-mercaptoethanol, 0.01% (v/v) bromophenol blue). The samples were directly loaded and resolved on SDS page gel (10% acrylamide). The gels were scanned using a ChemiDoc MP system (Cy3 settings, 605/50 filter).
(§3) The resolved proteins were transferred from the gels to a polyvinyldifluoride membrane for Western Blotting using a Trans-Blot® Turbo (BioRad). FLAG-tagged enzymes were stained using rabbit anti-FLAG as primary antibody, and goat-anti-rabbit HRP as secondary antibody. The blot was developed in the dark using a 10 mL luminal solution, 100 μL ECL enhancer and 3 μL H2O2. Chemiluminescence was visualized using a ChemiDoc XRS (BioRad).
(§4) The percentage of DAGL activity remaining in the assayed samples was determined by measuring the integrated optical intensity of the fluorescent protein bands of the Western Blot using image lab 4.1. The relative intensity was compared to the vehicle (DMSO) treated proteins, which were set to 100%. IC50 values were determined by plotting a log(inhibitor) vs. normalized response (Variable slope) dose-response curve generated using Prism software (GraphPad).

DAGLβ (hDAGLβ-FLAG) = DAGLβ (hDAGLβ-FLAG) (Homo sapiens (Human), UniProt Q8NCG7); test: as above; assay type: biochemical; conditions: for inhibition at 0.0032 µM: read-out: DAGLβ % inh. 3.2 nM
Experimental: as §1, §2, §3, §4

DAGLβ (hDAGLβ-FLAG), sequence (Q8NCG7 whole entry): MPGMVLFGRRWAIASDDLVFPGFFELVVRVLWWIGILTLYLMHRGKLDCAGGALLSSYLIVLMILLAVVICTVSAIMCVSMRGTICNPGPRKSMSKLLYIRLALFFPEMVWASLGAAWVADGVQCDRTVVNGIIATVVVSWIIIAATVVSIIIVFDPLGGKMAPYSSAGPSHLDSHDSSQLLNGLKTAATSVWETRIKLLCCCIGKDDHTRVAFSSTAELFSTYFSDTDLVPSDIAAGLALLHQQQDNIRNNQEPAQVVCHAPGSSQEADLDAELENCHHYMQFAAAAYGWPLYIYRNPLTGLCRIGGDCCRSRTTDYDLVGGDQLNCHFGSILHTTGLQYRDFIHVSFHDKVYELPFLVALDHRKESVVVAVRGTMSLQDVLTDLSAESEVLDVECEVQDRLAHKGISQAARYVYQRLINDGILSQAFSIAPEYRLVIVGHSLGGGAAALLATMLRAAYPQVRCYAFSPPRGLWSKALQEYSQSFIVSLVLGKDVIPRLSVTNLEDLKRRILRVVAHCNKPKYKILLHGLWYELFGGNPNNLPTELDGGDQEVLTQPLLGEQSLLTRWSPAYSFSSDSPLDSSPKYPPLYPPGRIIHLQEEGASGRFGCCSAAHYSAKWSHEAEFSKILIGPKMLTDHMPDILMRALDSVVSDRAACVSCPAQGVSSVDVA
DAGLα (hDAGLα-FLAG), sequence (Q9Y4D2 whole entry): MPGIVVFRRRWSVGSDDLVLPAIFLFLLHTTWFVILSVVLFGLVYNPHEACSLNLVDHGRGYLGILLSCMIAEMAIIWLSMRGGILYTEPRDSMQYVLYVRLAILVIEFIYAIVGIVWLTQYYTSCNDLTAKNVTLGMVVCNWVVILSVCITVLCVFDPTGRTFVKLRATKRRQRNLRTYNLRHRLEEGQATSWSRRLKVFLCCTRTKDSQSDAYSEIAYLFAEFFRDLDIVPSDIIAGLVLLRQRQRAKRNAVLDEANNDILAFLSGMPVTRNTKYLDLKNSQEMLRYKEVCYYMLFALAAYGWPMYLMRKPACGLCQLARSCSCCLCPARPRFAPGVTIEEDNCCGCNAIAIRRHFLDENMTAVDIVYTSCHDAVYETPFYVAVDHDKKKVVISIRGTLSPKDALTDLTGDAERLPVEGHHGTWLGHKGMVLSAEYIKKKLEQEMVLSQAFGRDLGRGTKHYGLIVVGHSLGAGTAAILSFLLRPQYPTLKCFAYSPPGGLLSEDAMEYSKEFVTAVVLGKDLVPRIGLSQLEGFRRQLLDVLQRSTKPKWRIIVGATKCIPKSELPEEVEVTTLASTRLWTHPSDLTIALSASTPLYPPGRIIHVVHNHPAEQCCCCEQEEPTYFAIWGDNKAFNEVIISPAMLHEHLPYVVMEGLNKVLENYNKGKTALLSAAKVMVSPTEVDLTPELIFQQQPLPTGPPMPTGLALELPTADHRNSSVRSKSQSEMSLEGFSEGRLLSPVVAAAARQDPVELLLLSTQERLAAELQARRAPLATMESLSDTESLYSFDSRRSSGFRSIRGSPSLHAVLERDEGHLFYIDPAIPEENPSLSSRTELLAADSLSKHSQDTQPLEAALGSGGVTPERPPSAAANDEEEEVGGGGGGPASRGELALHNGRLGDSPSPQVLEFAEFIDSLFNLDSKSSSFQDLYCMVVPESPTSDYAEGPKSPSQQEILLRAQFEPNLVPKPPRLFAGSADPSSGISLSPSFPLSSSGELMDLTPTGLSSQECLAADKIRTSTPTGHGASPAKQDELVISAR

| IC50 (DAGLα (hDAGLα-FLAG); read-out: DAGLα IC50) [nM] | IC50 (DAGLβ (hDAGLβ-FLAG); read-out: DAGLβ IC50) [nM] | inhibition at 0.0032 µM (DAGLα (hDAGLα-FLAG)) [%] | inhibition at 0.0032 µM (DAGLβ (hDAGLβ-FLAG)) [%] | also measured | SMILES |
| --- | --- | --- | --- | --- | --- |
| 2000 to 10000 | > 10000 |  |  |  | CN(C)C(=O)c1ccc(-c2ccc(-c3cn(C(=O)N4CCCCC4Cc4ccccc4)nn3)cc2)cc1 (centres unmarked) [Compound 75, 4′-(1-(2-benzylpiperidine-1-carbonyl)-1H-1,2,3-triazol-4-yl)-N,N-dimethyl-[1,1′-biphenyl]-4-carboxamide] |
|  |  | 0 to 25 | 0 to 25 |  | O=C(N1C[C@@H](O)C=C[C@@H]1Cc1ccccc1)n1ncc(-c2ccc(OC(F)(F)F)cc2)n1 [Compound 115, ((3S,6S)-6-benzyl-3-hydroxy-3,6-dihydropyridin-1(2H)-yl)(4-(4-(trifluoromethoxy)phenyl)-2H-1,2,3-triazol-1-yl)methanone] |
| ≤ 400 | ≤ 400 |  |  |  | COc1ccc(-c2cn(C(=O)N3CCCCC3Cc3ccccc3)nn2)cc1 (centres unmarked) [Compound 87, (2-benzylpiperidin-1-yl)(4-(4-methoxyphenyl)-1H-1,2,3-triazol-1-yl)methanone] |
|  |  | 0 to 25 | 0 to 25 |  | O=C(N1CCC=C[C@H]1COCc1ccccc1)n1cc(-c2ccc(OC(F)(F)F)cc2)nn1 [Compound 108, (S)-(6-((benzyloxy)methyl)-3,6-dihydropyridin-1(2H)-yl)(4-(4-(trifluoromethoxy)phenyl)-1H-1,2,3-triazol-1-yl)methanone] |
| 400 to 2000 | 2000 to 10000 |  |  |  | CC(C)(C)CN(CCc1cccnc1)C(=O)n1ncc(-c2ccc(OC(F)(F)F)cc2)n1 [Compound 135, N-neopentyl-N-(2-(pyridin-3-yl)ethyl)-4-(4-(trifluoromethoxy)phenyl)-2H-1,2,3-triazole-1-carboxamide] |
|  |  | 0 to 25 | 0 to 25 |  | CO[C@H]1CC[C@H](Cc2ccccc2)N(C(=O)n2ncc(-c3ccc(OC(F)(F)F)cc3)n2)C1 [Compound 119] |
|  |  |  |  | inhibition at 0.4 µM (DAGLα (hDAGLα-FLAG); 0.4 μM, read-out: DAGLα % inh. 0.4 μM): 0 to 25%; inhibition at 0.4 µM (DAGLβ (hDAGLβ-FLAG); read-out: DAGLβ % inh. 0.4 μM): 0 to 25% | COC(=O)N1CCN(C(=O)n2ncc(-c3ccc(OC(F)(F)F)cc3)n2)C(Cc2ccccc2)C1 (centres unmarked) [Compound 98, methyl 3-benzyl-4-(4-(4-(trifluoromethoxy)phenyl)-2H-1,2,3-triazole-2-carbonyl)piperazine-1-carboxylate] |
| ≤ 400 | 2000 to 10000 |  |  |  | COc1cc(OC)c(-c2ccc(-c3cn(C(=O)N4CCCCC4Cc4ccncc4)nn3)cc2)c(OC)c1 (centres unmarked) [Compound 67, (2-(pyridin-4-ylmethyl)piperidin-1-yl)(4-(2′,4′,6′-trimethoxy-[1,1′-biphenyl]-4-yl)-1H-1,2,3-triazol-1-yl)methanone] |
| ≤ 400 | 2000 to 10000 |  |  |  | O=C(N1CCCCC1Cc1ccccc1)n1cc(-c2ccc(-c3cccnc3)cc2)nn1 (centres unmarked) [Compound 60, (2-benzylpiperidin-1-yl)(4-(4-(pyridin-3-yl)phenyl)-1H-1,2,3-triazol-1-yl)methanone] |
|  |  | 0 to 25 | 0 to 25 |  | O=C(N1C[C@H](O)C=C[C@@H]1Cc1ccccc1)n1cc(-c2ccc(OC(F)(F)F)cc2)nn1 [Compound 112, ((3R,6S)-6-benzyl-3-hydroxy-3,6-dihydropyridin-1(2H)-yl)(4-(4-(trifluoromethoxy)phenyl)-1H-1,2,3-triazol-1-yl)methanone] |
| 2000 to 10000 | > 10000 |  |  |  | COc1cncc(OC)c1-c1ccc(-c2cnn(C(=O)N3CCCCC3Cc3ccccc3)n2)cc1 (centres unmarked) [Compound 70, (2-benzylpiperidin-1-yl)(4-(4-(3,5-dimethoxypyridin-4-yl)phenyl)-2H-1,2,3-triazol-2-yl)methanone] |
| 400 to 2000 | 2000 to 10000 |  |  |  | O=C(N1CCCCC1Cc1ccccc1)n1cc(-c2ccc(-c3ccccn3)cc2)nn1 (centres unmarked) [Compound 61, (2-benzylpiperidin-1-yl)(4-(4-(pyridin-2-yl)phenyl)-1H-1,2,3-triazol-1-yl)methanone] |
| ≤ 400 | 400 to 2000 |  |  |  | CN(C)C(=O)c1ccccc1-c1ccc(-c2cn(C(=O)N3CCCCC3Cc3ccccc3)nn2)cc1 (centres unmarked) [Compound 77, 4′-(1-(2-benzylpiperidine-1-carbonyl)-1H-1,2,3-triazol-4-yl)-N,N-dimethyl-[1,1′-biphenyl]-2-carboxamide] |
| ≤ 400 | ≤ 400 |  |  |  | CC(C)(C)CN(CCc1ccccc1)C(=O)n1cc(-c2ccc(OC(F)(F)F)cc2)nn1 [Compound 123, N-neopentyl-N-phenethyl-4-(4-(trifluoromethoxy)phenyl)-1H-1,2,3-triazole-1-carboxamide] |
| ≤ 400 | 2000 to 10000 |  |  |  | CS(=O)(=O)OCc1ccc(-c2cn(C(=O)N3CCCCC3Cc3ccccc3)nn2)cc1 (centres unmarked) [Compound 91, 4-(1-(2-benzylpiperidine-1-carbonyl)-1H-1,2,3-triazol-4-yl)benzyl methanesulfonate] |
|  |  |  |  | inhibition at 0.8 µM (DAGLα (hDAGLα-FLAG); 0.8 μM (stated under the cell), read-out: DAGLα % inh. 0.8 μM): 0 to 25%; inhibition at 0.8 µM (DAGLβ (hDAGLβ-FLAG); 0.8 μM (stated under the cell), read-out: DAGLβ % inh. 0.8 μM): 0 to 25% | C#CCCCC(=O)N1CCN(C(=O)n2ncc(-c3ccc(OC(F)(F)F)cc3)n2)C(Cc2ccccc2)C1 (centres unmarked) [Compound 35, 1-(3-benzyl-4-(4-(4-(trifluoromethoxy)phenyl)-2H-1,2,3-triazole-2-carbonyl)piperazin-1-yl)hex-5-yn-1-one] |
|  |  | 25 to 50 | 0 to 25 |  | O=C(N1C[C@@H](OCC2CC2)CC[C@@H]1Cc1ccccc1)n1ncc(-c2ccc(OC(F)(F)F)cc2)n1 [Compound 45, ((2R,5S)-2-benzyl-5-(cyclopropylmethoxy)piperidin-1-yl)(4-(4-(trifluoromethoxy)phenyl)-2H-1,2,3-triazol-2-yl)methanone] |
| ≤ 400 | ≤ 400 |  |  | IC50 (DAGLα (hDAGLα-FLAG); ABPP method, n=3, read-out: IC50, DAGLα): 9.5 nM; IC50 (DAGLβ (hDAGLβ-FLAG); ABPP method, n=3, read-out: IC50, DAGLβ): 106 nM | COc1cncc(OC)c1-c1ccc(-c2cn(C(=O)N3CCCCC3Cc3ccccc3)nn2)cc1 (centres unmarked) [Compound 19, (2-Benzylpiperidin-1-yl)(4-(4-(3,5-dimethoxypyridin-4-yl)phenyl)-1H-1,2,3-triazol-1-yl)methanone] |
|  |  | 0 to 25 | 0 to 25 |  | O=C(N1C[C@@H](O)C=C[C@@H]1Cc1ccccc1)n1cc(-c2ccc(OC(F)(F)F)cc2)nn1 [Compound 114, ((3S,6S)-6-benzyl-3-hydroxy-3,6-dihydropyridin-1(2H)-yl)(4-(4-(trifluoromethoxy)phenyl)-1H-1,2,3-triazol-1-yl)methanone] |
| 2000 to 10000 | 2000 to 10000 |  |  |  | CN(C)Cc1ccc(-c2cn(C(=O)N3CCCCC3Cc3ccccc3)nn2)cc1 (centres unmarked) [Compound 92, (2-benzylpiperidin-1-yl)(4-(4-((dimethylamino)methyl)phenyl)-1H-1,2,3-triazol-1-yl)methanone] |
| ≤ 400 | 2000 to 10000 |  |  |  | COc1cc(C)cc(OC)c1-c1ccc(-c2cn(C(=O)N3CCCCC3Cc3ccccc3)nn2)cc1 (centres unmarked) [Compound 64, (2-benzylpiperidin-1-yl)(4-(2′,6′-dimethoxy-4′-methyl-[1,1′-biphenyl]-4-yl)-1H-1,2,3-triazol-1-yl)methanone] |
| ≤ 400 | ≤ 400 |  |  |  | O=C(N(CCc1ccccc1)C1CC1)n1cc(-c2ccc(OC(F)(F)F)cc2)nn1 [Compound 125, N-cyclopropyl-N-phenethyl-4-(4-(trifluoromethoxy)phenyl)-1H-1,2,3-triazole-1-carboxamide] |
|  |  | 0 to 25 | 0 to 25 |  | O=C(N1CCC=C[C@H]1COCc1ccccc1)n1ncc(-c2ccc(OC(F)(F)F)cc2)n1 [Compound 109, (S)-(6-((benzyloxy)methyl)-3,6-dihydropyridin-1(2H)-yl)(4-(4-(trifluoromethoxy)phenyl)-2H-1,2,3-triazol-2-yl)methanone] |
|  |  | ≥ 75 | 25 to 50 |  | O=C(N1C[C@H](OCC2CC2)CC[C@@H]1Cc1ccccc1)n1cc(-c2ccc(OC(F)(F)F)cc2)nn1 [Compound 120, ((2R,5R)-2-benzyl-5-(cyclopropylmethoxy)piperidin-1-yl)(4-(4-(trifluoromethoxy)phenyl)-1H-1,2,3-triazol-1-yl)methanone] |
| ≤ 400 | 2000 to 10000 |  |  |  | COc1ccc(-c2ccc(-c3cn(C(=O)N4CCCCC4Cc4ccccc4)nn3)cc2)c(OC)c1 (centres unmarked) [Compound 62, (2-benzylpiperidin-1-yl)(4-(2′,4′-dimethoxy-[1,1′-biphenyl]-4-yl)-1H-1,2,3-triazol-1-yl)methanone] |
| 2000 to 10000 |  |  |  |  | CCC(CC)CN(CCc1ccccc1)C(=O)n1ncc(-c2ccc(OC(F)(F)F)cc2)n1 [Compound 126, N-(2-ethylbutyl)-N-phenethyl-4-(4-(trifluoromethoxy)phenyl)-2H-1,2,3-triazole-2-carboxamide] |
